Laboratory results reported in article PMC10323144, “Garbage in, garbage out: how reliable training data improved a virtual screening approach against SARS-CoV-2 MPro” (Frontiers in Pharmacology, 2023).
In brackets after ≈: the same amount, converted by molar mass. Several values for one entry are separate records, joined by “and”; a condition that tells them apart may be missing. Identical values can stand only once. Like-named read-outs stand apart in the source and are kept apart here. Marks after values point to notes of the source that are not given here.

What was measured:
[1] = tested on: Vero cells
[2] = target: SARS-CoV-2 MPro (Severe acute respiratory syndrome coronavirus 2, UniProt P0DTD1); test: MPro activity assay (de-quenching of Edans fluorescence on cleavage of a Dabcyl/Edans peptide); type: biochemical; details: for IC50: 60 min pre-incubation, 5 μM substrate
[3] = tested on: SARS-CoV-2 (βCoV/KOR/KCDC03/2020); test: microbe, parasite or virus in culture; type: cell-based
[4] = Cytotoxicity assay, WST-1; details: human, CC50 A549 cells
[5] = in vitro; details: African green monkey
[6] = tested on: human lung cell line A549; test: Cytotoxicity assay, WST-1; details: read-out: CC50 A549 cells, 24 h
[7] = tested on: MPro; details: compiled from peer-reviewed sources (287 compounds) ref the 18 original articles; cited from earlier work
[8] = tested on: SARS-CoV-2; design: method as in Henss et al., 2021; details: 72 h assay ref Henss et al., 2021, cited from earlier work
[9] = Severe acute respiratory syndrome coronavirus 2, Vero, read-out: inhibition of viral replication
[10] = Severe acute respiratory syndrome coronavirus 2, Vero, 24 h

Row | Structure (SMILES) | IC50 [2] | CC50 at 24 h [4] [µM] | CC50 [5] [µM] | IC50 [3, 10] [µM] | IC50 [3] [µM] | further results
1 | O=c1c(Cl)c(Cl)cnn1Cc1nc2ccccc2c2ccccc12 [39d] | 2 µM |  |  |  |  | impairment of cell viability ([1]; at 50 μM): 13%; inhibition at 50 µM [3, 9]: 18%
2 | O=c1c(Cl)c(Cl)cnn1Cc1nc2ccccc2c2ccccc12 [Cpd 39] | 1.97 ± 0.5 µM | 50 to 100 | > 50 | > 50 |  | Class (MPro activity class) ([2]; in-house acquired data, internal screening under standardized conditions (128 compounds)): 0 (compounds with IC50 > 20 μM, percentage inhibition <80% at 20 µM or 50 μM, or percentage enzyme inhibition <50% at 10 µM were labelled as INACTIVE)
3 | [O-][n+]1onc2ccc(/C=C/[S+]([O-])c3ccc(Cl)cc3)cc21 (stereo not drawn) [4d] | 0.121 ± 0.002 µM | ≤ 50 | 15.2 | ~8 | 7.3 | CC50 [6]: 50 to 100 µM
4 | O=C(/C=C/c1ccc2ccccc2c1)c1ccccc1O [compound 25] | 0.46 ± 0.21 µM | > 50 | 38.8 |  | 17.5 | 
5 | O=c1c2ccccc2[se]n1-c1ccccc1 [Ebselen] |  | > 100 | > 50 | 10 | 9.7 | 
6 | CCC(CC)COC(=O)[C@H](C)N[P@](=O)(OC[C@H]1O[C@@](C#N)(c2ccc3c(N)ncnn23)[C@H](O)[C@@H]1O)Oc1ccccc1 [Remdesivir] |  |  | > 50 | 8 | 7.8 | SI: selectivity index = CC50 mammalian cell/IC50 SARS-CoV-2 [1]: >50 (>6.4) ^a; Class (MPro activity class) [7]: 0 (compounds with IC50 > 20 μM, percentage inhibition <80% at 20 µM or 50 μM, or percentage enzyme inhibition <50% at 10 µM were labelled as INACTIVE)
7 | Nc1ccc(S(=O)(=O)c2ccc(Nc3c([N+](=O)[O-])c(Cl)cc4c3no[n+]4[O-])cc2)cc1 [22d] | 0.37 ± 0.085 µM | > 100 | > 50 | ~44 | 44.8 | 
8 | O=C(/C=C/c1ccc2no[n+]([O-])c2c1)c1ccc(Cl)cc1 [5d] | 0.64 ± 0.02 µM | > 50 | > 50 | ~44 | 43.2 | 
9 | O=C(OC[C@H]1O[C@@H]([S+]([O-])c2ccccc2)[C@H](OC(=O)c2ccccc2)[C@@H](OC(=O)c2ccccc2)[C@@H]1OC(=O)c1ccccc1)c1ccccc1 (stereo partly drawn) [7a] | 20.2 ± 1.9 µM |  | > 50 | > 50 |  | inhibition at 25 µM ([3]; Severe acute respiratory syndrome coronavirus 2, Vero, at 25 μM, read-out: inhibition of viral replication): 15%; inhibition at 50 µM [3, 9]: 21%
10 | [O-][n+]1onc2ccc(/C=C/Sc3ccc(Cl)cc3)cc21 [3d] | 0.73 ± 0.16 µM | ≤ 50 | 15.2 | ~8 | 8.3 | CC50 [6]: < 50 µM
11 | O=C(O[C@@H]1Cc2c(O)cc(O)cc2O[C@@H]1c1cc(O)c(O)c(O)c1)c1cc(O)c(O)c(O)c1 [epigallocatechin gallate] |  |  |  |  |  | IC50 SARS-CoV-2 replication [8]: 1.73 µg/mL (≈ 3.77 µM); IC50 ([8]; read-out: IC50 SARS-CoV-2 replication): 3.9 µM
12 | [O-][n+]1onc2ccc(/C=C\c3ccc(Cl)cc3)cc21 [2d] |  | > 50 |  |  |  | activity at 25 µM ([2]; read-out: MPro activity (%)): 53.2 ± 0.2%
13 | O=C(/C=C/c1cccc2ccccc12)c1c(O)ccc2ccccc12 [28d] | 1.4 µM and 1.35 µM | > 100 | > 50 | 48.9 |  | impairment of cell viability ([1]; African green monkey): ~25%
